Measured values reported in patent US20130252890A1, “6,7-DIHYDRO-5H-BENZO[7]ANNULENE DERIVATIVES, PROCESS FOR PREPARATION THEREOF, PHARMACEUTICAL PREPARATIONS COMPRISING THEM, AND THE USE THEREOF FOR PRODUCTION OF MEDICAMENTS” (BAYER INTELLECTUAL PROPERTY GMBH, priority 2010, published 2013).

Molecular target: T1, oestrogen receptor (ER) (Homo sapiens, UniProt P03372)
T1 construct: These MVLN cells express, along with the functional oestrogen receptor (ER), a reporter construct; endogenous in cells; host or cells: MVLN cells (MCF7 derivative carrying a luciferase reporter construct)
T1 sequence (P03372 1-595): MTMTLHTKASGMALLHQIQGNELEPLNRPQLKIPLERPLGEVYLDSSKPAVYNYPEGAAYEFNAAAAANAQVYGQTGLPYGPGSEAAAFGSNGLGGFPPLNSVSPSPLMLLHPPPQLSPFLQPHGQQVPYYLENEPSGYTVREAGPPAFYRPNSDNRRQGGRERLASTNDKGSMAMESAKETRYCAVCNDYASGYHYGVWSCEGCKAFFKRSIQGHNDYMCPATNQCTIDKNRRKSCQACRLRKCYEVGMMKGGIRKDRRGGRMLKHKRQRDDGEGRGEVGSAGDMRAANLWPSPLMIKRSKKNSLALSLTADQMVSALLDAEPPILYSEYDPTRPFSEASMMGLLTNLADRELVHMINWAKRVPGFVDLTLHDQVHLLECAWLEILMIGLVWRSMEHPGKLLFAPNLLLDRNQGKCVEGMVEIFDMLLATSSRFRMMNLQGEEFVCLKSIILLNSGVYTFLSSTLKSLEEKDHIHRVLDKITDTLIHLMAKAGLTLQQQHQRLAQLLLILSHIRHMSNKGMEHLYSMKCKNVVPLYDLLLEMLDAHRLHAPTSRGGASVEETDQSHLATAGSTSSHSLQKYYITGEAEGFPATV
Experiment: Anti-oestrogenic action in MVLN cells (inhibition of estradiol-induced luciferase)
Type: cell-based
Conditions: inhibition of estradiol-induced luciferase signal, value of Ex. 44 is a mean value, read-out: Antioestrogenic action in vitro: MVLN transactivation antagonism IC50
Text: The anti-oestrogenic action of the claimed pharmacological compounds was investigated in so-called MVLN cells in vitro. MVLN cells are derivatives of the hormone-responsive MCF7 breast cancer cells known by a person skilled in the art. These MVLN cells express, along with the functional oestrogen receptor (ER), a reporter construct, which under ER-activation expresses luciferase. Determination of the activity of the induced luciferase permits a direct conclusion on the oestrogen properties of substances. To investigate the anti-oestrogenic properties of the pharmacological compounds, they were investigated in the presence of oestrogen for their potential for inhibiting the luciferase signal induced by estradiol. The claimed pharmacological test substances were investigated in MVLN cells for their anti-oestrogenic potential, as described (see Table 2).

SMILES | IC50 [nM]
O=S(=O)(CCCN(CCCO)CCCCCCC1=C(c2ccc(F)cc2)CCCc2c1ccc(O)c2F)CCC(F)(F)F [Example 62, 4-Fluoro-8-(4-fluorophenyl)-9-{6-[(3-hydroxypropyl){3-[(3,3,3-trifluoropropyl)sulphonyl]propyl}amino]hexyl}-6,7-dihydro-5H-benzo[7]annulen-3-ol] | 84
CN(CCCCCCC1=C(c2cc(F)cc(F)c2)CCCc2cc(O)ccc21)CCCS(=O)(=O)CCC(F)(F)C(F)(F)F [Example 3, 8-(3,5-Difluorophenyl)-9-[6-(methyl{3-[(3,3,4,4,4-pentafluorobutyl)sulphonyl]propyl}amino)hexyl]-6,7-dihydro-5H-benzo[7]annulen-3-ol] | 180
O=S(=O)(CCCCN(CCO)CCCCCCC1=C(c2ccc(F)cc2)CCCc2cc(O)ccc21)CCCC(F)(F)F [Example 92, 8-(4-Fluorophenyl)-9-{6-[(2-hydroxyethyl){4-[(4,4,4-trifluorobutyl)sulphonyl]butyl}amino]hexyl}-6,7-dihydro-5H-benzo[7]annulen-3-ol] | 5
CC(C)(O)CN(CCCCCCC1=C(c2cc(F)cc(F)c2)CCCc2cc(O)ccc21)CCC[S+]([O-])CCCC(F)(F)C(F)(F)F (stereo not drawn) [Example 12, 8-(3,5-Difluorophenyl)-9-{6-[(2-hydroxy-2-methylpropyl){3-[(4,4,5,5,5-pentafluoropentyl)sulphinyl]propyl}amino]hexyl}-6,7-dihydro-5H-benzo[7]annulen-3-ol] | 15
CN(CCCCCCC1=C(c2ccc(F)c(F)c2)CCCc2cc(O)ccc21)CCC[S+]([O-])CCC(F)(F)C(F)(F)F (stereo not drawn) [Example 18, 8-(3,4-Difluorophenyl)-9-[6-(methyl{3-[(3,3,4,4,4-pentafluorobutyl)sulphinyl]propyl}amino)hexyl]-6,7-dihydro-5H-benzo[7]annulen-3-ol] | 34
CN(CCCCCCC1=C(c2ccc(F)cc2)CCCc2c1ccc(O)c2F)CCCS(=O)(=O)CCCC(F)(F)C(F)(F)F [Example 33, 4-Fluoro-8-(4-fluorophenyl)-9-[6-(methyl{3-[(4,4,5,5,5-pentafluoropentyl)sulphonyl]propyl}amino)hexyl]-6,7-dihydro-5H-benzo[7]annulen-3-ol] | 11
CC(C)(O)CN(CCCCCCC1=C(c2cc(F)cc(F)c2)CCCc2cc(O)ccc21)CCC[S+]([O-])CCC(F)(F)F (stereo not drawn) [Example 10, 8-(3,5-Difluorophenyl)-9-{6-[(2-hydroxy-2-methylpropyl){3-[(3,3,3-trifluoropropyl)sulphinyl]propyl}amino]hexyl}-6,7-dihydro-5H-benzo[7]annulen-3-ol] | 38
CN(CCCCCCC1=C(c2ccc(F)cc2)CCCc2c1ccc(O)c2F)CCC[S+]([O-])CCC(F)(F)F (stereo not drawn) [Example 36, 4-Fluoro-8-(4-fluorophenyl)-9-[6-(methyl{3-[(3,3,3-trifluoropropyl)sulphinyl]propyl}amino)hexyl]-6,7-dihydro-5H-benzo[7]annulen-3-ol] | 35
COCCCN(CCCCCCC1=C(c2cc(F)cc(F)c2)CCCc2cc(O)ccc21)CCCS(=O)(=O)CCCC(F)(F)C(F)(F)F [Example 16, 8-(3,5-Difluorophenyl)-9-{6-[(3-methoxypropyl){3-[(4,4,5,5,5-pentafluoropentyl)sulphonyl]propyl}amino]hexyl}-6,7-dihydro-5H-benzo[7]annulen-3-ol] | 27
C[C@@H](O)CN(CCCCCCC1=C(c2ccc(F)cc2)CCCc2cc(O)ccc21)CCCCS(=O)(=O)CCCC(F)(F)F [Example 98] | 6
COC(=O)CCN(CCCCCCC1=C(c2ccc(F)cc2)CCCc2cc(O)ccc21)CCCCS(=O)(=O)CCCC(F)(F)F [Example 83, Methyl-N-{6-[8-(4-fluorophenyl)-3-hydroxy-6,7-dihydro-5H-benzo[7]annulen-9-yl]hexyl}-N-{4-[(4,4,4-trifluorobutyl)sulphonyl]butyl}-beta-alaninate] | 13
CN(CCCCCCC1=C(c2ccc(F)cc2)CCCc2c1ccc(O)c2F)CCCCS(=O)(=O)CCC(F)(F)F [Example 50, 4-Fluoro-8-(4-fluorophenyl)-9-[6-(methyl{4-[(3,3,3-trifluoropropyl)sulphonyl]butyl}amino)hexyl]-6,7-dihydro-5H-benzo[7]annulen-3-ol] | 16

Next, values leading:

IC50 [nM] | SMILES
15 | CN(CCCCCCC1=C(c2ccc(F)cc2F)CCCc2cc(O)ccc21)CCCCS(=O)(=O)CCC(F)(F)C(F)(F)F [Example 146, 8-(2,4-Difluorophenyl)-9-[6-(methyl{4-[(3,3,4,4,4-pentafluorobutyl)sulphonyl]-butyl}amino)hexyl]-6,7-dihydro-5H-benzo[7]annulen-3-ol]
4 | CN(CCCCCCC1=C(c2ccc(F)cc2)CCCc2cc(O)c(F)cc21)CCCS(=O)(=O)CCCCCC(F)(F)F [Example 140, 2-Fluoro-8-(4-fluorophenyl)-9-[6-(methyl{3-[(6,6,6-trifluorohexyl)sulphonyl]propyl}amino)hexyl]-6,7-dihydro-5H-benzo[7]annulen-3-ol]
16 | CN(CCCCCCC1=C(c2ccc(F)cc2F)CCCc2cc(O)ccc21)CCCS(=O)(=O)CCC(F)(F)F [Example 130, 8-(2,4-Difluorophenyl)-9-[6-(methyl{3-[(3,3,3-trifluoropropyl)sulphonyl]propyl}amino)hexyl]-6,7-dihydro-5H-benzo[7]annulen-3-ol]
5 | CN(CCCCCCC1=C(c2ccc(F)cc2F)CCCc2cc(O)ccc21)CCCS(=O)(=O)CCCCC(F)(F)F [Example 129, 8-(2,4-Difluorophenyl)-9-[6-(methyl{3-[(5,5,5-trifluoropentyl)sulphonyl]propyl}amino)hexyl]-6,7-dihydro-5H-benzo[7]annulen-3-ol]
14 | CN(CCCCCCC1=C(c2ccc(F)cc2)CCCc2c1ccc(O)c2F)CCCS(=O)(=O)CCCC(F)(F)F [Example 149, 4-Fluoro-8-(4-fluorophenyl)-9-[6-(methyl{3-[(4,4,4-trifluorobutyl)sulphonyl]propyl}amino)hexyl]-6,7-dihydro-5H-benzo[7]annulen-3-ol]
69 | O=S(=O)(CCCN(CCO)CCCCCCC1=C(c2ccc(F)cc2)CCCc2cc(O)ccc21)CCC(F)(C(F)(F)F)C(F)(F)F [Example 108, 8-(4-Fluorophenyl)-9-{6-[(2-hydroxyethyl)(3-{[3,4,4,4-tetrafluoro-3-(trifluoromethyl)butyl]sulphonyl}propyl)amino]hexyl}-6,7-dihydro-5H-benzo[7]annulen-3-ol]
33 | CN(CCCCCCC1=C(c2ccc(F)cc2)CCCc2cc(O)ccc21)CCCCS(=O)(=O)CCC(F)(C(F)(F)F)C(F)(F)F [Example 111, 8-(4-Fluorophenyl)-9-{6-[methyl(4-{[3,4,4,4-tetrafluoro-3-(trifluoromethyl)butyl]sulphonyl}butyl)amino]hexyl}-6,7-dihydro-5H-benzo[7]annulen-3-ol]
80 | CC(C)(O)CN(CCCCCCC1=C(c2ccc(F)cc2)CCCc2cc(O)ccc21)CCCS(=O)(=O)CCC(F)(F)F [Example 119, 8-(4-fluorophenyl)-9-{6-[(2-hydroxy-2-methylpropyl){3-[(3,3,3-trifluoropropyl)sulphonyl]propyl}amino]hexyl}-6,7-dihydro-5H-benzo[7]annulen-3-ol]
17 | CN(CCCCCCC1=C(c2ccc(F)cc2)CCCc2cc(O)ccc21)CCCS(=O)(=O)CCCCCC(F)(F)F [Example 148, 8-(4-Fluorophenyl)-9-[6-(methyl{3-[(6,6,6-trifluorohexyl)sulphonyl]propyl}amino)hexyl]-6,7-dihydro-5H-benzo[7]annulen-3-ol]
